Molecules are shown by their SMILES.

From patent US9073821B2, “Hydroxamic acid derivative” (priority 2010, dated 2015) come the findings set out here.

The target in this assay is Pseudomonas aeruginosa LpxC enzyme (Pseudomonas aeruginosa (strain ATCC 15692 / DSM 22644 / CIP 104116 / JCM 14847 / LMG 12228 / 1C / PRS 101 / PAO1), UniProt P47205). Kind of assay: biochemical. The assay is classed as biochemical. The following applies: inhibitory activity on Pseudomonas aeruginosa LpxC enzyme, class symbols A/B/C; read-out: Enzyme inhibitory activity.
For `CC(=O)N(C)CCNC(=O)C(NC(=O)c1ccc(-c2ccc(OCCO)cc2)cc1)C(=O)NO` (stereo not shown) [Compound 145, N-{2-[acetyl(methyl)amino]ethyl}-N′-hydroxy-2-({[4′-(2-hydroxyethoxy)biphenyl-4-yl]carbonyl}amino)propanediamide], the IC50 fell in the range of 10 to 100 nM. With `Cn1nccc1CNC(=O)C(NC(=O)c1ccc(-c2ccc(OCCO)cc2)cc1)C(=O)NO` (stereo not shown) [Compound 146, N-hydroxy-2-({[4′-(2-hydroxyethoxy)biphenyl-4-yl]carbonyl}amino)-N′-[(1-methyl-1H-pyrazol-5-yl)methyl]propanediamide] the figure was under 10 nM; with `Cn1cc(CNC(=O)C(NC(=O)c2ccc(-c3ccc(OCCO)cc3)cc2)C(=O)NO)cn1` (stereo not shown) [Compound 147, N-hydroxy-2-({[4′-(2-hydroxyethoxy)biphenyl-4-yl]carbonyl}amino)-N′-[(1-methyl-1H-pyrazol-4-yl)methyl]propanediamide], under 10 nM; with `O=C(NC(C(=O)NO)C(=O)NO)c1ccc(-c2ccc(OCCO)cc2)cc1` [Compound 148, N,N′-dihydroxy-2-({[4′-(2-hydroxyethoxy)biphenyl-4-yl]carbonyl}amino)propanediamide], 10 to 100 nM.

For the compound `O=C(NC(C(=O)NO)C(=O)NCC1COc2ccccc2O1)c1ccc(-c2ccc(OCCO)cc2)cc1` (stereo not shown) [Compound 149, N-(2,3-dihydro-1,4-benzodioxin-2-ylmethyl)-N′-hydroxy-2-({[4′-(2-hydroxyethoxy)biphenyl-4-yl]carbonyl}amino)propanediamide], the IC50 is under 10 nM. Turning to `Cc1cccc(CNC(=O)C(NC(=O)c2ccc(-c3ccc(OCCO)cc3)cc2)C(=O)NO)n1` (stereo not shown) [Compound 150, N-hydroxy-2-({[4′-(2-hydroxyethoxy)biphenyl-4-yl]carbonyl}amino)-N′-[(6-methylpyridin-2-yl)methyl]propanediamide], the IC50 was under 10 nM. As for `O=C(NC(C(=O)NO)C(=O)NCCc1ccccn1)c1ccc(-c2ccc(OCCO)cc2)cc1` (stereo not shown) [Compound 151, N-hydroxy-2-({[4′-(2-hydroxyethoxy)biphenyl-4-yl]carbonyl}amino)-N′-[2-(pyridin-2-yl)ethyl]propanediamide], the IC50 was under 10 nM. With `O=C1COc2ccc(CNC(=O)C(NC(=O)c3ccc(-c4ccc(OCCO)cc4)cc3)C(=O)NO)nc2N1` (stereo not shown) [Compound 152, N-hydroxy-2-({[4′-(2-hydroxyethoxy)biphenyl-4-yl]carbonyl}amino)-N′-[(3-oxo-3,4-dihydro-2H-pyrido[3,2-b][1,4]oxazin-6-yl)methyl]propanediamide] the figure was under 10 nM. With `CNC(=O)C(C(=O)NO)N(C(=O)c1ccc(-c2ccc(OCCO)cc2)cc1)C1CC1` (stereo not shown) [Compound 154, 2-(cyclopropyl {[4′-(2-hydroxyethoxy)biphenyl-4-yl]carbonyl}amino)-N-hydroxy-N′-methylpropanediamide] the figure was 10 to 100 nM; with `Cc1nnc(CNC(=O)C(NC(=O)c2ccc(-c3ccc(OCCO)cc3)cc2)C(=O)NO)s1` (stereo not shown) [Compound 155, N-hydroxy-2-({[4′-(2-hydroxyethoxy)biphenyl-4-yl]carbonyl}amino)-N′-[(5-methyl-1,3,4-thiadiazol-2-yl)methyl]propanediamide], under 10 nM. With `Cn1ccnc1CNC(=O)C(NC(=O)c1ccc(-c2ccc(OCCO)cc2)cc1)C(=O)NO` (stereo not shown) [Compound 156, N-hydroxy-2-({[4′-(2-hydroxyethoxy)biphenyl-4-yl]carbonyl}amino)-N′-[(1-methyl-1H-imidazol-2-yl)methyl]propanediamide] the figure was under 10 nM.

Consider `O=C(NC(C(=O)NO)C(=O)NCc1cocn1)c1ccc(-c2ccc(OCCO)cc2)cc1` (stereo not shown) [Compound 157, N-hydroxy-2-({[4′-(2-hydroxyethoxy)biphenyl-4-yl]carbonyl}amino)-N′-(1,3-oxazol-4-ylmethyl)propanediamide], for which the IC50 was under 10 nM. With `Cn1cnc(CNC(=O)C(NC(=O)c2ccc(-c3ccc(OCCO)cc3)cc2)C(=O)NO)c1` (stereo not shown) [Compound 158, N-hydroxy-2-({[4′-(2-hydroxyethoxy)biphenyl-4-yl]carbonyl}amino)-N′-[(1-methyl-1H-imidazol-4-yl)methyl]propanediamide] the figure was under 10 nM. In the case of `CCN(C(=O)c1ccc(-c2ccccc2)cc1)C(C(=O)NC)C(=O)NO` (stereo not shown) [Compound 159, 2-[(biphenyl-4-ylcarbonyl)(ethyl)amino]-N-hydroxy-N′-methylpropanediamide], the IC50 is 10 to 100 nM. As for `O=C(NC(C(=O)NO)C(=O)NCC1CN(Cc2ccccc2)CCO1)c1ccc(-c2ccc(OCCO)cc2)cc1` (stereo not shown) [Compound 160, N-[(4-benzylmorpholin-2-yl)methyl]-N′-hydroxy-2-({[4′-(2-hydroxyethoxy)biphenyl-4-yl]carbonyl}amino)propanediamide], the IC50 was under 10 nM. With `CN(C(=O)c1ccc(-c2ccccc2)cc1)C(C(=O)NO)C(=O)NCc1ccccn1` (stereo not shown) [Compound 161, 2-[(biphenyl-4-ylcarbonyl)(methyl)amino]-N-hydroxy-N′-(pyridin-2-ylmethyl)propanediamide] the figure was 10 to 100 nM; with `O=C(NC(C(=O)NO)C(=O)NCC1CNCCO1)c1ccc(-c2ccc(OCCO)cc2)cc1` (stereo not shown) [Compound 162, N-hydroxy-2-({[4′-(2-hydroxyethoxy)biphenyl-4-yl]carbonyl}amino)-N′-(morpholin-2-ylmethyl)propanediamide], 10 to 100 nM. As to `CNC(=O)C(C(=O)NO)N(C(=O)c1ccc(-c2ccccc2)cc1)C1CCC1` (stereo not shown) [Compound 163, 2-[(biphenyl-4-ylcarbonyl)(cyclobutyl)amino]-N-hydroxy-N′-methylpropanediamide], the IC50 lay within 10 to 100 nM. With `CNC(=O)C(C)(NC(=O)c1ccc(-c2ccccc2)cc1)C(=O)NO` (stereo not shown) [Compound 164, 2-[(Biphenyl-4-ylcarbonyl)amino]-N-hydroxy-N′,2-dimethylpropanediamide] the figure was over 100 nM. With `CNC(=O)C(C(=O)NO)N(C)C(=O)c1ccc(-c2ccc(CCCO)cc2)cc1` (stereo not shown) [Compound 165, N-hydroxy-2-[{[4′-(3-hydroxypropyl)biphenyl-4-yl]carbonyl}(methyl)amino]-N′-methylpropanediamide] the figure was under 10 nM; with `CNC(=O)C(C(=O)NO)N(CCOC)C(=O)c1ccc(-c2ccccc2)cc1` (stereo not shown) [Compound 166, 2-[(biphenyl-4-ylcarbonyl)(2-methoxyethyl)amino]-N-hydroxy-N′-methylpropanediamide], 10 to 100 nM. With `CNC(=O)C(C(=O)NO)N(C)C(=O)c1ccc(C#Cc2ccc(CN3CCOCC3)cc2)cc1` (stereo not shown) [Compound 167, N-hydroxy-N′-methyl-2-[methyl(4-{[4-(morpholin-4-ylmethyl)phenyl]ethynyl}benzoyl)amino]propanediamide] the figure was under 10 nM; with `CNC(=O)C(C(=O)NO)N(C)C(=O)c1ccc(-c2ccncc2)cc1` (stereo not shown) [Compound 169, N-hydroxy-N′-methyl-2-{methyl[4-(pyridin-4-yl)benzoyl]amino}propanediamide], 10 to 100 nM. On to `CN(C(=O)c1ccc(-c2ccccc2)cc1)C(C(=O)NO)C(=O)NCc1ncccn1` (stereo not shown) [Compound 170, 2-[(biphenyl-4-ylcarbonyl)(methyl)amino]-N-hydroxy-N′-(pyrimidin-2-ylmethyl)propanediamide], for which the IC50 is over 100 nM. With `CCCNC(=O)C(C(=O)NO)N(C)C(=O)c1ccc(-c2ccccc2)cc1` (stereo not shown) [Compound 171, 2-[(biphenyl-4-ylcarbonyl)(methyl)amino]-N-hydroxy-N′-propylpropanediamide] the figure was over 100 nM; with `CN(C)C(=O)CNC(=O)C(C(=O)NO)N(C)C(=O)c1ccc(-c2ccccc2)cc1` (stereo not shown) [Compound 173, 2-[(biphenyl-4-ylcarbonyl)(methyl)amino]-N-[2-(dimethylamino)-2-oxoethyl]-N′-hydroxypropanediamide], over 100 nM; with `CNC(=O)C(C(=O)NO)N(CC(F)F)C(=O)c1ccc(-c2ccccc2)cc1` (stereo not shown) [Compound 174, 2-[(biphenyl-4-ylcarbonyl)(2,2-difluoroethyl)amino]-N-hydroxy-N′-methylpropanediamide], under 10 nM. With `CN(C(=O)c1ccc(-c2ccccc2)cc1)C(C(=O)NO)C(=O)NC1CC1` (stereo not shown) [Compound 175, 2-[(biphenyl-4-ylcarbonyl)(methyl)amino]-N-cyclopropyl-N′-hydroxypropanediamide] the figure was over 100 nM. With `CNC(=O)C(C(=O)NO)N(C)C(=O)c1ccc(CCc2ccc(NCCO)cc2)cc1` (stereo not shown) [Compound 176, N-hydroxy-2-{[4-(2-{4-[(2-hydroxyethyl)amino]phenyl}ethyl)benzoyl](methyl)amino}-N′-methylpropanediamide] the figure was under 10 nM; with `CN(C(=O)c1ccc(-c2ccccc2)cc1)C(C(=O)NO)C(=O)NCc1cccnc1` (stereo not shown) [Compound 177, 2-[(biphenyl-4-ylcarbonyl)(methyl)amino]-N-hydroxy-N′-(pyridin-3-ylmethyl)propanediamide], 10 to 100 nM. For `CN(C(=O)c1ccc(-c2ccccc2)cc1)C(C(=O)NO)C(=O)NCc1ccncc1` (stereo not shown) [Compound 178, 2-[(biphenyl-4-ylcarbonyl)(methyl)amino]-N-hydroxy-N′-(pyridin-4-ylmethyl)propanediamide], the IC50 was over 100 nM. With `CNC(=O)C(C(=O)NO)N(C)C(=O)c1ccc(-c2ccc(NCCO)cc2)cc1` (stereo not shown) [Compound 179, N-hydroxy-2-[({4′-[(2-hydroxyethyl)amino]biphenyl-4-yl}carbonyl)(methyl)amino]-N′-methylpropanediamide] the figure was under 10 nM. With `CNC(=O)C(C(=O)NO)N(C)C(=O)c1ccc(-c2ccc(OCCCCO)cc2)cc1` (stereo not shown) [Compound 180, N-hydroxy-2-[{[4′-(4-hydroxybutoxy)biphenyl-4-yl]carbonyl}(methyl)amino]-N′-methylpropanediamide] the figure was under 10 nM. With `CNC(=O)C(C(=O)NO)N(C)C(=O)c1ccc(-c2ccc(OCCC(O)CO)cc2)cc1` (stereo not shown) [Compound 181, 2-[{[4′-(3,4-dihydroxybutoxy)biphenyl-4-yl]carbonyl}(methyl)amino]-N-hydroxy-N′-methylpropanediamide] the figure was under 10 nM.
